Results published in patent publication US20100197628A1, “METHODS OF TREATING PSYCHIATRIC, SUBSTANCE ABUSE, AND OTHER DISORDERS USING COMBINATIONS CONTAINING OMEGA-3 FATTY ACIDS” (priority 2003, published 2010).
Entries after “also recorded” stand apart in the source; their conditions may differ. Where a name gives a salt, the structure may show the parent alone.

Experiments:
depressed subjects = assay: 17-item Hamilton Depression Rating Scale (HDRS), eight weeks of treatment; type: in vivo, human
Experimental: In a second study, twelve depressed subjects (mean age 40) received 500 mg of an oral formulation of CDP-choline twice daily for eight weeks.

male Sprague-Dawley rats = assay: Forced swim test (FST): latency to become immobile and behavioral sampling; type: in vivo, rat; settings: re-test (day 2), DMI 10 mg/kg, FLX 20 mg/kg; for latency to become immobile: 3 IP injections, CIT 5.0 mg/kg; for occurrences of climbing (behavioral sampling) / occurrences of swimming (behavioral sampling) / occurrences of immobility (behavioral sampling): CIT 5.0 mg/kg IP
Experimental: The behavioral effects of the combination of uridine and omega-3 fatty acids were also evaluated in rats using the forced swim test (FST). This assay identifies in rodents treatments that have antidepressant effects in humans (Porsolt et al. Nature 266:730-732 1977; Carlezon et al. Biol. Psychiatry 51:882-889, 2002). Uridine was administered using systemic injection while omega-3 fatty acids were administered by supplementation within the diet for various periods of time (3, 10, or 30 days). The effects of uridine in rats maintained on the omega-3 fatty acid-enriched diet were also evaluated to determine if these effects were additive. […] The efficacy of each treatment in the FST was evaluated using two separate scoring methods: latency to become immobile, a simple and rapid method that identifies agents with antidepressant effects ([…] et al. J Neurosci 21:7397-7403 2001), and behavioral sampling, a more complex method that differentiates antidepressant drugs according to their pharmacological mechanisms (Detke et al. Psychopharmacology 121:66-72 1995). Finally, treatments with antidepressant-like effects in the FST were evaluated for non-specific effects on activity in an open field, which might complicate interpretation of the data from the swimming studies. Rats: A total of 197 male Sprague-Dawley rats (Charles River Laboratories, Boston Mass.) were used in these studies. The rats were housed in groups of four and weighed 325-375 gm at the time of behavioral testing. Rats were maintained on a 12 h light (0700-1900 h)-12 h dark cycle with free access to food and water except during testing. Experiments were conducted in accordance with the 1996 Guide for the Care and Use of Laboratory Animals (NIH) and McLean Hospital policies. Drugs: Dosages of desipramine HCl (DMI), fluoxetine HCl (FLX), citalopram HBr (CIT), and uridine (URI) were administered in a distilled water vehicle (VEH) at a volume of 1 cc/kg. All drugs were purchased from RBI-Sigma (St. Louis, Mo.) except CIT, which was a gift of Forest Laboratories (New York, N.Y.). […] The diets were equivalent in overall fat, protein, carbohydrate, and caloric content. Forced Swim Test (FST): One hundred-sixty seven rats were used in the FST studies, which were conducted as described previously (Carlezon et al. Biol. Psychiatry 51:882-889, 2002) with minor modifications. The FST is a two-day procedure in which rats swim under conditions in which escape is not possible. On the first day, rats are placed in clear, 65 cm tall-25 cm diameter cylinders filled to 48 cm with 25° C. water. The rats initially struggle to escape from the water, but eventually they adopt a posture of immobility in which they make only the movements necessary to keep their heads above water. After 15 min of forced swimming, the rats are removed from the water, dried with towels, and placed in a warmed enclosure for 30 min. The cylinders are emptied and cleaned between rats. When the rats are re-tested 24 hours later under identical conditions in 5 min sessions, immobility is increased. Treatment with standard antidepressant drugs within the 24 hr period between the first exposure to forced swimming and re-testing can attenuate facilitated immobility, an effect correlated with antidepressant efficacy in humans (Porsolt et al. Nature 266:730-732 1977; Detke et al. Psychopharmacology 121:66-72 1995, Carlezon et al. Biol. Psychiatry 51:882-889, 2002). Rats tested with DMI, FLX, CIT, or URI received 3 separate intraperitoneal (IP) injections of drug (or VEH), at 1 hr, 19 hr, and 23 hr after the first exposure to forced swimming. This commonly used regimen is sensitive to the antidepressant-like effects of many standard agents (Porsolt et al. Nature 266:730-732 1977; Detke et al. Psychopharmacology 121:66-72 1995; Carlezon et al. Biol. Psychiatry 51:882-889, 2002). […] There were 7-12 rats per treatment condition, and separate rats were used for each treatment regimen. […]

[1] = test system: putamen, caudate and thalamus of children with ADHD; assay: T2 relaxometry fMRI (T2-RT), indirect measure of regional blood volume; type: in vivo, human; settings: ongoing treatment
Source text: A new fMRI procedure (T2 relaxometry or “T2-RT”) was developed to indirectly assess blood volume in the striatum (caudate and putamen) of boys 6-12 years of age under steady-state conditions. Six healthy control boys (10.2±1.5 yr) and eleven boys diagnosed with ADHD (9.3±1.6 yr) served as subjects in the study to examine fMRI differences between unmedicated healthy controls and ADHD children on either placebo or the highest dose of methylphenidate. The healthy controls were screened using structured diagnostic interview (K-SADS-E; Orvaschel, H. & Puig-Antich, J., The schedule for affective disorders and schizophrenia for school-age children-epidemiologic version (Kiddie-SADS-E), University of Pittsburgh, Pittsburgh, Pa., 1987), were free of any major psychiatric disorder, and had no more than 3 out of 9 possible symptoms of inattention or hyperactivity-impulsivity by DSM-IV criteria. Children with ADHD were included if they met criteria for ADHD on structured diagnostic interview, and had at least 6 of 9 symptoms of inattention or hyperactivity-impulsivity. Children with ADHD took part in a triple blind (parent, child, rater), randomized, placebo-controlled study of effects of methylphenidate (0, 0.5, 0.8, 1.5 mg/kg in divided dose) on activity, attention, and fMRI. Children with ADHD were treated continuously for one week with placebo or a specific dose of methylphenidate and at the end of the week were tested for drug efficacy using objective measures of attention and activity and fMRI (See Methods) within 1-3 hours of their afternoon dose. The time between dose and testing was held constant for each subject throughout the four treatment conditions. Activity and attention were evaluated in unmedicated healthy controls using the same procedure as children with ADHD, and fMRI followed within the same time frame.
T2 relaxometry, a novel fMRI procedure, was used to derive steady state blood flow measures and to test for enduring medication effects. […] T2 relaxometry, like BOLD, hinges on the paramagnetic properties of deoxyhemoglobin. […]

children with ADHD [2] = assay: Computerized continuous performance task (CPT), measure of attention; type: in vivo, human
Experimental: A new fMRI procedure (T2 relaxometry or “T2-RT”) was developed to indirectly assess blood volume in the striatum (caudate and putamen) of boys 6-12 years of age under steady-state conditions. Six healthy control boys (10.2±1.5 yr) and eleven boys diagnosed with ADHD (9.3±1.6 yr) served as subjects in the study to examine fMRI differences between unmedicated healthy controls and ADHD children on either placebo or the highest dose of methylphenidate. […] Activity and attention were evaluated in unmedicated healthy controls using the same procedure as children with ADHD, and fMRI followed within the same time frame.
(§1) Highly accurate laboratory-based measures of activity and attention were obtained by having the children perform a computerized vigilance test while an infrared motion analysis system captured and recorded movements (see Methods). […]
Assessment of Activity and Attention. […] In brief, children sat in front of a computer and were evaluated using a simple GO/NO−GO CPT in which the subject responds to visual presentation of a target and withholds response to a non-target stimuli that appear in the center of the screen at a fixed 2 second […] interval (Greenberg et al., Psychopharmacol. Bull. 23: 279-282, 1987). […]
Statistical Analyses. Differences between groups was assessed using ANCOVA with age as a covariate. […]

children with ADHD [3] = assay: Infrared motion analysis of activity during the attention test; type: in vivo, human
Source text: A new fMRI procedure (T2 relaxometry or “T2-RT”) was developed to indirectly assess blood volume in the striatum (caudate and putamen) of boys 6-12 years of age under steady-state conditions. Six healthy control boys (10.2±1.5 yr) and eleven boys diagnosed with ADHD (9.3±1.6 yr) served as subjects in the study to examine fMRI differences between unmedicated healthy controls and ADHD children on either placebo or the highest dose of methylphenidate. The healthy controls were screened using structured diagnostic interview (K-SADS-E; Orvaschel, H. & Puig-Antich, J., The schedule for affective disorders and schizophrenia for school-age children-epidemiologic version (Kiddie-SADS-E), University of Pittsburgh, Pittsburgh, Pa., 1987), were free of any major psychiatric disorder, and had no more than 3 out of 9 possible symptoms of inattention or hyperactivity-impulsivity by DSM-IV criteria. Children with ADHD were included if they met criteria for ADHD on structured diagnostic interview, and had at least 6 of 9 symptoms of inattention or hyperactivity-impulsivity. Children with ADHD took part in a triple blind (parent, child, rater), randomized, placebo-controlled study of effects of methylphenidate (0, 0.5, 0.8, 1.5 mg/kg in divided dose) on activity, attention, and fMRI. […] Activity and attention were evaluated in unmedicated healthy controls using the same procedure as children with ADHD, and fMRI followed within the same time frame.
as §1
Assessment of Activity and Attention. […] In brief, children sat in front of a computer and were evaluated using a simple GO/NO−GO CPT in which the subject responds to visual presentation of a target and withholds response to a non-target stimuli that appear in the center of the screen at a fixed 2 second […] interval (Greenberg et al., Psychopharmacol. Bull. 23: 279-282, 1987). […] Three 5-minute test sessions were recorded during a 30-minute test period while an infrared motion analysis system (Qualisys, Glastonbury, Conn.) recorded the movement of small reflective markers attached to the head, shoulder, elbow, and back of the child. […] Results were analyzed using the concept of “micro-events.” A new micro-event begins when the marker moves 1.0 millimeters or more from its most recent resting location, and is defined by its position and duration. The spatial scaling exponent is a measure of the spatial complexity of the movement path, and is calculated from the logarithmic rate of information decay at progressively lower levels of resolution. […]

[4] = eight weeks, CDP-choline 500 mg twice daily, fluoxetine 20 mg/day
[5] = children with ADHD, methylphenidate vs placebo, P<0.05

CNCCC(Oc1ccc(C(F)(F)F)cc1)c1ccccc1 (stereo not shown) [fluoxetine, fluoxetine HCl]
mean 17-item HDRS score with eight weeks of treatment (depressed subjects; CDP-choline 500 mg oral twice daily, fluoxetine open label 20 mg/day, p<0.0001): 11±6 | mean 17-item HDRS score before treatment (depressed subjects; baseline, CDP-choline 12 subjects, fluoxetine 41 subjects): 21±4 | complete responses (subjects/total) (depressed subjects; [4]): 17/41 | complete responses, share of subjects (depressed subjects; [4]): 41% | latency to become immobile (male Sprague-Dawley rats; listed as FLX, HCl): increased latencies to become immobile | occurrences of climbing (behavioral sampling) (male Sprague-Dawley rats): without affecting climbing | occurrences of swimming (behavioral sampling) (male Sprague-Dawley rats): increased swimming | occurrences of immobility (behavioral sampling) (male Sprague-Dawley rats; listed as FLX, HCl): reduced immobility; also recorded: decreased immobility

COC(=O)C(c1ccccc1)C1CCCCN1 (stereo not shown) [methylphenidate]
T2-RT in right caudate ([1]; P=0.08): trend-level difference | T2-RT in thalamus ([1]; P>0.7): failed to exert significant effects | T2-RT in right and left putamen ([1]; response tied to unmedicated activity state, P=0.006): significantly altered | response variability (S.D.) of response latency (children with ADHD [2]; children with ADHD on methylphenidate (placebo 242 msec), P<0.005): 149 ms | performance accuracy on the CPT (children with ADHD [2]; children with ADHD, methylphenidate vs placebo, one week of treatment, P<0.05): enhancing | increase in spatial complexity (children with ADHD [3]; 5 ADHD children not objectively hyperactive on placebo, p>0.6): < 8% | increase in spatial complexity (children with ADHD [3]; 6 subjects objectively hyperactive on placebo, P<0.02): 52.6% | complexity of the movement pattern (children with ADHD [3]; [5]): increasing | increase in time spent immobile (children with ADHD [3]; [5]): 126%

CNCCCN1c2ccccc2CCc2ccccc21 [DMI, desipramine HCl]
latency to become immobile (male Sprague-Dawley rats; HCl): increased latencies to become immobile | occurrences of climbing (behavioral sampling) (male Sprague-Dawley rats; HCl): increased climbing; also recorded: increases in occurrences of climbing | occurrences of immobility (behavioral sampling) (male Sprague-Dawley rats; HCl): reduced immobility; also recorded: decreases in occurrences of immobility | occurrences of swimming (behavioral sampling) (male Sprague-Dawley rats; HCl): without affecting occurrences of swimming

CN(C)CCCC1(c2ccc(F)cc2)OCc2cc(C#N)ccc21 (stereo not shown) [CIT, citalopram HBr]
latency to become immobile (male Sprague-Dawley rats; HBr): increased latencies to become immobile | occurrences of climbing (behavioral sampling) (male Sprague-Dawley rats): without affecting climbing | occurrences of swimming (behavioral sampling) (male Sprague-Dawley rats): increased swimming | occurrences of immobility (behavioral sampling) (male Sprague-Dawley rats; HBr): reduced immobility; also recorded: decreased immobility
